Experimental data as given in ChEMBL document CHEMBL1201862, “PubChem BioAssay data set” (2004).
Calls of active or inactive are those of the source.

How the values were obtained:
[1] = target: ATP-binding cassette sub-family B member 6 (Homo sapiens, UniProt Q9NP58); experiment: ABCB6 transporter inhibitors, porphyrin accumulation, dose response, flow cytometry, K562-ABCB6 cells, cherry pick 02 (AID 624487); format: functional; conditions: read-out: EC50_MICROM
INS1 = experiment: beta cell apoptosis inhibitors, cytokine rescue, dose response, luminescence, retest (AID 449756); format: functional, cell-based; conditions: Rattus norvegicus;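 note: cell death triggered by IL-1 beta plus TNF-alpha plus IFN-gamma mixture; protective hits raise ATP signal compared with cytokine alone wells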
[2] = inhibitors of firefly luciferase expression or activity, dose response, H4 neuroglioma cells, luminescence (AID 1990); format: functional, cell-based
[3] = Shn3 3'UTR reporter inhibitors, dose response, cell-based, Clone20 osteoblasts, firefly luciferase, cherry-picked (AID 624132); format: functional;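 note: firefly luciferase luminescence from reporter carrying the Shn3 3'UTR in osteoblasts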
Streptococcus = experiment: Group A Streptococcus viability loss, dose response, counter-screen for streptokinase expression inhibitor project, luminescence, BacTiterGlo (AID 1915); format: functional, organism-based;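 note: potency for reduction of bacterial viability or growth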
Fatty acid synthase [4] = target: T1, Fatty acid synthase (Homo sapiens, UniProt P49327); experiment: FAS thioesterase domain inhibitors, dose response, biochemical, kinetic fluorescence intensity (AID 624326); format: functional;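 note: rate of fluorescence rise from hydrolysis of a fluorogenic O-methyl fluorescein ester substrate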
[5] = Luminescence Cell-Based Dose Response HTS to Identify Inhibitors of 5'UTR Stem-Loop Driven Prion Protein mRNA Translation in H4 Neuroglioblastoma Cells. [Related pubchem assays: 1827 (Project Summary), 1813 (Primary HTS)]; format: functional
Streptokinase A = target: T2, Streptokinase A (Streptococcus pyogenes serotype M1, UniProt P10520); experiment: S. pyogenes streptokinase expression inhibitors, potency, dose response, plasminogen activation absorbance, OD405 (AID 1914); format: functional, Streptococcus pyogenes M1 GAS;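 note: secreted streptokinase activity via plasminogen activation per viability signal from cell pellet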
T2 sequence (P10520 whole entry): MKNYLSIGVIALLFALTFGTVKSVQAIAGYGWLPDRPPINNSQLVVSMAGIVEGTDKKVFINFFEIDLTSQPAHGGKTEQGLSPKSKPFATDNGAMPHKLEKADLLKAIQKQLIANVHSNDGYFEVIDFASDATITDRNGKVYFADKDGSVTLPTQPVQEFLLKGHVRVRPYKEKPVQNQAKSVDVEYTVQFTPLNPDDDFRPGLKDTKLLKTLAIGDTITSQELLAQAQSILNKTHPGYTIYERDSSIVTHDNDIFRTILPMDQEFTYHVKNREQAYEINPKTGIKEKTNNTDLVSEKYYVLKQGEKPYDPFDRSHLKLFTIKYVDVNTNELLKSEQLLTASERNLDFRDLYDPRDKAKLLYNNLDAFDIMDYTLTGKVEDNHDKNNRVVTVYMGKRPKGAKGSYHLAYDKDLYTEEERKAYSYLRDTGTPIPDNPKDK

[6] = non-specific cell cytotoxicity, dose response, cytotoxicity control for PAX8 inhibitor project, plate reader, dry powder samples (AID 743021); format: functional, cell-based
Paired box protein Pax-8 = Paired box protein Pax-8 (Homo sapiens, UniProt Q06710); experiment: inhibitors of PAX8-driven TPO luciferase reporter, dose response, RMG-I cells, cherry-pick (AID 687027); format: functional, cell-based;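 note: luciferase reporter driven by Pax8 target thyroperoxidase promoter measured by SteadyGlo luminescence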
[7] = system: Streptococcus sp. 'group A'; experiment: growth inhibition of control SK(-) GAS strain, dose response, counter-screen for streptokinase expression inhibitor project, luminescence, kanamycin, BacTiterGlo, confirmation (AID 1900); format: functional, organism-based
[8] = HepG2 cell cytotoxicity, dose response, cytotoxicity control for Shn3 inhibitor project, CellTiter-Glo, cherry-picked (AID 624134); format: functional, cell-based
[9] = inhibitors of SNCA 5'UTR-driven reporter translation, confirmation, H4 neuroglioma cells, luminescence (AID 1988); format: functional, cell-based
[10] = control 3'UTR Renilla luciferase suppression, dose response, counter-screen for Shn3 inhibitor project, cell-based, Clone20-Shn3RL, cherry-picked (AID 624133); format: functional
Fatty acid synthase [11] = target: T1, Fatty acid synthase; experiment: FAS thioesterase domain inhibitors, dose response, biochemical, endpoint fluorescence intensity, uHTS hits (AID 624327); format: functional;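 note: fluorescence from hydrolysis of an O-methyl fluorescein acyl ester substrate by the enzyme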
Beta-lactamase [12] = target: T3, Beta-lactamase (Pseudomonas aeruginosa, UniProt Q79MP6); experiment: IMP-1 metallo-beta-lactamase inhibitors, dose response, selectivity assay for VIM-2 inhibitor project, biochemical, epi-absorbance (AID 1920)
Beta-lactamase [13] = target: Beta-lactamase (Salmonella choleraesuis (strain SC-B67), UniProt Q5J463); experiment: Epi-absorbance-based counterscreen for selective VIM-2 inhibitors: dose response biochemical high throughput screening assay to identify inhibitors of TEM-1 serine-beta-lactamase.
Beta-lactamase [14] = target: T3, Beta-lactamase; experiment: […] counterscreen for selective VIM-2 inhibitors: dose response biochemical high throughput screening assay to identify inhibitors of IMP-1 metallo-beta-lactamase.
[15] = target: T4, Scavenger receptor class B member 1 (Mus musculus, UniProt Q61009); experiment: inhibitors of SR-BI-mediated HDL uptake, dose response, cell-based, ldlA[mSR-BI] CHO, DiI fluorescence, dry powder, set 10 (AID 624029); format: functional
T4 sequence (Q61009 whole entry): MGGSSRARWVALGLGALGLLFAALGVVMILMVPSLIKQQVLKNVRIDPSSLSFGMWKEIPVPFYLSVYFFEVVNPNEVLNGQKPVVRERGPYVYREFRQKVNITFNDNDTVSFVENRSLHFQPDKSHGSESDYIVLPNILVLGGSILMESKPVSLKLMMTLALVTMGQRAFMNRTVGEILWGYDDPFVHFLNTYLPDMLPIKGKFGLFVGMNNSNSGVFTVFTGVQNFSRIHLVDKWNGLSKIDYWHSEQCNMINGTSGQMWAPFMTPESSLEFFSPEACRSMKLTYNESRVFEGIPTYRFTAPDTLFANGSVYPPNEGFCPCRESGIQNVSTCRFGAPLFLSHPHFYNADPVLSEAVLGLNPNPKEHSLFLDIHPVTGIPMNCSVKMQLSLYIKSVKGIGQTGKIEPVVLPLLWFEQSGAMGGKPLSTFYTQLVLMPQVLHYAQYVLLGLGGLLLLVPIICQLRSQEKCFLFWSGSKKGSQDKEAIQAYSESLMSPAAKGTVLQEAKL

[16] = target: T4, Scavenger receptor class B member 1; experiment: inhibitors of SR-BI dependent HDL uptake, dose response, ldlA[mSR-BI] CHO cells, fluorescence plate reader, dry powder, set 9 (AID 623880); format: functional, cell-based
[17] = miR-122 activators in hepatoma reporter cells, dose response, cell-based, Huh7 psiCHECK-miR122, Renilla luciferase, cherry-picked (AID 651956); format: functional;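 note: huh7 hepatoma cells stably carrying a psiCHECK-2 miR-122 sensor plasmid; renilla luciferase signal reporting endogenous miR-122 activity after 48 h compound exposure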
Beta Lactamase = Beta Lactamase (Pseudomonas aeruginosa, UniProt Q932Y6); experiment: beta-lactamase reporter inhibitor potency, dose response, artefact control for NOD2-RIPK2 interaction inhibitor project, BLA reporter cells, FRET fluorescence (AID 651552); format: functional, cell-based
[18] = HeLa cell cytotoxicity, dose response, cytotoxicity control for MgcRacGAP inhibitor project (AID 624300); format: functional
[19] = target: Heat shock protein HSP 90-alpha (Homo sapiens, UniProt P07900); format: functional, organism-based
[20] = Fluorescence-based cell-based high throughput dose response assay for inhibitors of the interaction of nucleotide-binding oligomerization domain containing 2 (NOD2) and the receptor-interacting serine-threonine kinase 2 (RIPK2).; format: functional; conditions: Homo sapiens
[21] = target: T5, Rac GTPase-activating protein 1 (Homo sapiens, UniProt Q9H0H5); experiment: MgcRacGAP GTPase-activating activity inhibitors, confirmation, biochemical, ADP Hunter fluorescence, primary and confirmatory (AID 624330); format: functional
T5 sequence (Q9H0H5 whole entry): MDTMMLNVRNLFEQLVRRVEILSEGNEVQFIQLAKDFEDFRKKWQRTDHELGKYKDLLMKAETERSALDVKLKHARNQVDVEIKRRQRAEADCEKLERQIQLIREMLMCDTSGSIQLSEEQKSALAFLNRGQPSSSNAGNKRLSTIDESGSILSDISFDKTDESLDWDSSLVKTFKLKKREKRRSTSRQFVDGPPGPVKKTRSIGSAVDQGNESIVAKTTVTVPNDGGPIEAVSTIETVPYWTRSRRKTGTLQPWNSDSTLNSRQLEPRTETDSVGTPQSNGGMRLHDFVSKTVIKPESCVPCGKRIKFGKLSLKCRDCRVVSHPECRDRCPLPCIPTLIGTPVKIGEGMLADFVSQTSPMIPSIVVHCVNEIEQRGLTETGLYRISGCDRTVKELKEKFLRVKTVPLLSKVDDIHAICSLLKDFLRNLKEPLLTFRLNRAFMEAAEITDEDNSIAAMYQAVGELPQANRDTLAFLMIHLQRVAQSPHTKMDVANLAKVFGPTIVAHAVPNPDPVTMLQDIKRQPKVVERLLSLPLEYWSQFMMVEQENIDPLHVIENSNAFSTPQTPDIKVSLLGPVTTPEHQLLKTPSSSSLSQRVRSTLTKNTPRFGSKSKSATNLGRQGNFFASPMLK

T1 sequence (P49327 whole entry, the tested form may be a part): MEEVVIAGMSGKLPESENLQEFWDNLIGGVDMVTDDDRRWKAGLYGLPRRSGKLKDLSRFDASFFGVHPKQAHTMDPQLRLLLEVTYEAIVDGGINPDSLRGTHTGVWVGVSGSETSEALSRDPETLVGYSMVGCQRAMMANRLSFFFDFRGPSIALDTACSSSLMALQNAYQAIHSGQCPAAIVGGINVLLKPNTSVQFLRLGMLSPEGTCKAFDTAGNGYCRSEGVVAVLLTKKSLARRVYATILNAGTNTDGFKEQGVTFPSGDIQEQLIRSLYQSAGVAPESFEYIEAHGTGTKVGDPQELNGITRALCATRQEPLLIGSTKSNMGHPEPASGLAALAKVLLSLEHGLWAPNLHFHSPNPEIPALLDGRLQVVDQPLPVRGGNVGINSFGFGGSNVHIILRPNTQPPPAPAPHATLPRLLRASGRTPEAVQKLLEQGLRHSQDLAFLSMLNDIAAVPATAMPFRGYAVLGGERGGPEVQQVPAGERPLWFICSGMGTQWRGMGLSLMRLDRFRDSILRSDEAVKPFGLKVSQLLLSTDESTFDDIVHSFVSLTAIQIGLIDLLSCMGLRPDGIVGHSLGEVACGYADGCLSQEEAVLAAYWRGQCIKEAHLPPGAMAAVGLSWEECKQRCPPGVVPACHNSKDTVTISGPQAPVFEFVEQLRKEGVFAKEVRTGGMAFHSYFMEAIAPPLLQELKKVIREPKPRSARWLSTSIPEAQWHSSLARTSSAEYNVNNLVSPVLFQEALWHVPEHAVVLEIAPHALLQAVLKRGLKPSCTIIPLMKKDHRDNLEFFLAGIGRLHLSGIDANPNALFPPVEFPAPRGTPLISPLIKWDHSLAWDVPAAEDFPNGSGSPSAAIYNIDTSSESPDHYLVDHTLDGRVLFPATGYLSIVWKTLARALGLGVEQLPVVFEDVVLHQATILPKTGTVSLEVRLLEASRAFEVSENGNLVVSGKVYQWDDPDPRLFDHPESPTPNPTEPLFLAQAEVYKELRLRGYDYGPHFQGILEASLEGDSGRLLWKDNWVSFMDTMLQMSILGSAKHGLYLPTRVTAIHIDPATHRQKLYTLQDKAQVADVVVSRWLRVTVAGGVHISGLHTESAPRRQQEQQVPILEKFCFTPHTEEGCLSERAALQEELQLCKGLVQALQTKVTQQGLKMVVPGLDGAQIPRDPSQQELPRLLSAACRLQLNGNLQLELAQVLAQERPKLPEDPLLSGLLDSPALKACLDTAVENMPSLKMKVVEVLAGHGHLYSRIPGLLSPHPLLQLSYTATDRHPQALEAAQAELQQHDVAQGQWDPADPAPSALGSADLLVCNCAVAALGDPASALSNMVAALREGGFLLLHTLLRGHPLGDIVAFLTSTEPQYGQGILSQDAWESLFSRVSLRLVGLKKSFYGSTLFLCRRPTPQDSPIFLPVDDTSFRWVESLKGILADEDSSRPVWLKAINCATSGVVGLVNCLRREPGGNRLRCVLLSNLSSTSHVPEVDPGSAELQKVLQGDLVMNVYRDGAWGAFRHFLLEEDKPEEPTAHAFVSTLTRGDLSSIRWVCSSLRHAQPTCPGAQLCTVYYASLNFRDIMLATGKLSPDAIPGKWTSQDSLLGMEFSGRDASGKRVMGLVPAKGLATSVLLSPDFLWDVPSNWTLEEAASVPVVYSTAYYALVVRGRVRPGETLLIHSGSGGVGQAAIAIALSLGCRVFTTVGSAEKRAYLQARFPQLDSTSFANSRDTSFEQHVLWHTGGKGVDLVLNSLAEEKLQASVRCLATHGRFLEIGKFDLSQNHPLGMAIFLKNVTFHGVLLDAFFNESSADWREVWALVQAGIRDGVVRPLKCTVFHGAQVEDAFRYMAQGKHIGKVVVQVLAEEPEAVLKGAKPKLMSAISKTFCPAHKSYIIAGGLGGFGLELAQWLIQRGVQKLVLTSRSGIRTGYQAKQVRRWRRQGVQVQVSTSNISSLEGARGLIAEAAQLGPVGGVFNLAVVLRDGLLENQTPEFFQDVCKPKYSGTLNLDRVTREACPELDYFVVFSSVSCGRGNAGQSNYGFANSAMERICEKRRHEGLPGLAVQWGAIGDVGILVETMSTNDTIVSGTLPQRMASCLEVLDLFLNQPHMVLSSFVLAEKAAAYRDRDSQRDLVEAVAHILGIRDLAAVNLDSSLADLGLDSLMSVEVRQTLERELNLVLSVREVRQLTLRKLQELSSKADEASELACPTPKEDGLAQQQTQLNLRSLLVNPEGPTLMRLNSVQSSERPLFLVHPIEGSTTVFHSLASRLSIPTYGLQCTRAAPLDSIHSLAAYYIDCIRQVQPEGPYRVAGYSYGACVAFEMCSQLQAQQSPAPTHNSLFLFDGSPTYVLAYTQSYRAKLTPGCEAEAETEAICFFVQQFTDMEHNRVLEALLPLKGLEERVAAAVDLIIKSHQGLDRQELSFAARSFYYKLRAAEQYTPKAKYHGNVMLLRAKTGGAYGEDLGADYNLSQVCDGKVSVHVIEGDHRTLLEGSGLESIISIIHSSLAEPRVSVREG
Sequence of Paired box protein Pax-8 (Q06710 whole entry): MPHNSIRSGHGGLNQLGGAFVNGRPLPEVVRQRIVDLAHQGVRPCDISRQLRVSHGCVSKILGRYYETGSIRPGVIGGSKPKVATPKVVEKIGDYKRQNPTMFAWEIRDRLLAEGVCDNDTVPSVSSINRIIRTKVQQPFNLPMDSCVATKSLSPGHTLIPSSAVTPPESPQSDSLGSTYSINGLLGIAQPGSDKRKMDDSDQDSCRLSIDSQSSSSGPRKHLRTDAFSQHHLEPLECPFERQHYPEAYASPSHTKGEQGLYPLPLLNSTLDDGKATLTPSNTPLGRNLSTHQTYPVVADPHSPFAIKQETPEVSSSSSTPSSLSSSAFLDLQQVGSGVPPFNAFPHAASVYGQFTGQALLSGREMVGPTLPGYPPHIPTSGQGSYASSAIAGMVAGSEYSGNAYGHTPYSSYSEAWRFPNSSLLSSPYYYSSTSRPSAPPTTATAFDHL
T3 sequence (Q79MP6 whole entry): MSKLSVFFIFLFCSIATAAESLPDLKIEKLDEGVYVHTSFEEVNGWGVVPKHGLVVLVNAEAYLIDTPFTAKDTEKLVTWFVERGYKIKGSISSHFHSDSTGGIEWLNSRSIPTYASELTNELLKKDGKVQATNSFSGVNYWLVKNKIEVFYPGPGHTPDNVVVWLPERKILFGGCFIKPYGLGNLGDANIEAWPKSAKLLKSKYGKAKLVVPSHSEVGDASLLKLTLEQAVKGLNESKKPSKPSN
Sequence of ATP-binding cassette sub-family B member 6 (Q9NP58 whole entry): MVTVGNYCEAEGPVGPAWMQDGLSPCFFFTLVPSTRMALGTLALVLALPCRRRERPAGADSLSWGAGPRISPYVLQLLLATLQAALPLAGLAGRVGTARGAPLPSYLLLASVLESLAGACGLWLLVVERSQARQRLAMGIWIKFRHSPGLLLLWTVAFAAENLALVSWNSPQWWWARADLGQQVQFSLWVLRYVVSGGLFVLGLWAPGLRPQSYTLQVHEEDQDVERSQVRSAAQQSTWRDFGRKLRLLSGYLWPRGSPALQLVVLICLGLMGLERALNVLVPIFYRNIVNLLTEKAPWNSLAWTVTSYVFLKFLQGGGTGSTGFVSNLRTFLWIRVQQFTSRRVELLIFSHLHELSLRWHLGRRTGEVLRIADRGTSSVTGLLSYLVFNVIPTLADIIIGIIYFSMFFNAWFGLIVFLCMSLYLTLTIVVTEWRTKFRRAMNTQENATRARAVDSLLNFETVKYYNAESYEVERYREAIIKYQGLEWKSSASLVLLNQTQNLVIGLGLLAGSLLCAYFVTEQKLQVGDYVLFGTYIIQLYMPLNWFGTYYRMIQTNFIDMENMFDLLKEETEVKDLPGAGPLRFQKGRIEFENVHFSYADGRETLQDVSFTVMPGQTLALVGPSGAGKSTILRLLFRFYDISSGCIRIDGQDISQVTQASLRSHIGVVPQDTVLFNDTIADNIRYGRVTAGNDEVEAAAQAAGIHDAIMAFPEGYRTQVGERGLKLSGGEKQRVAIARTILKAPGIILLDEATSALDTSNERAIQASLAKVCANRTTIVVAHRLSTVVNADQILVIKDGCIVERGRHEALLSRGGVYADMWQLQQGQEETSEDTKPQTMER
Sequence of Beta Lactamase (Q932Y6 whole entry): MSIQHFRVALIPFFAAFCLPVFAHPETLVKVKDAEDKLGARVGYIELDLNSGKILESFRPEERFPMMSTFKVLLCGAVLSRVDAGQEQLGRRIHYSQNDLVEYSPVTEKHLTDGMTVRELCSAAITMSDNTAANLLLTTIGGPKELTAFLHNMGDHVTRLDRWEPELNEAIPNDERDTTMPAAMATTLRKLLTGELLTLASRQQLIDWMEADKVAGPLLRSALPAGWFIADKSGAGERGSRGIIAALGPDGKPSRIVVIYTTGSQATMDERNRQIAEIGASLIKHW
Sequence of Beta-lactamase (Salmonella choleraesuis (strain SC-B67), UniProt Q5J463) (Q5J463 whole entry): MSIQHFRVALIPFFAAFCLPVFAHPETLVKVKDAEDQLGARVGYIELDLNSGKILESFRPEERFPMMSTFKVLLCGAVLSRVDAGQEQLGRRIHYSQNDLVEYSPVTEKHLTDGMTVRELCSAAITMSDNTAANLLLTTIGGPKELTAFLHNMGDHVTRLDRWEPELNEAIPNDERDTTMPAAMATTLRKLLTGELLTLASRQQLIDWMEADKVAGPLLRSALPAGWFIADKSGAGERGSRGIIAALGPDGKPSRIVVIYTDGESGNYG

In the case of `CCOc1ccccc1NC(=O)c1nc(S(=O)(=O)Cc2cccc(C)c2)ncc1Cl`, the EC50 [1] is reported as 11.5 µM (active), the AC50 (INS1) is reported as 5.15 µM (active) and the EC50 [2] is reported as > 120 µM (not active). The AC50 [3] was 0.324 µM (active), the EC50 (Streptococcus) was 15.7 µM (active) and the IC50 (Fatty acid synthase [4]) was 3.06 µM (active). The EC50 [5] was 10.9 µM (active), the EC50 (Streptokinase A) was 1.28 µM (active) and the AC50 [6] was 24.4 µM (active). The AC50 (Paired box protein Pax-8) was 7.71 µM (active), the EC50 [7] was 12 µM (active) and the AC50 [8] was 18.8 µM (active). The EC50 [9] was 8.12 µM (active), the AC50 [10] was 6.38 µM (active) and the IC50 (Fatty acid synthase [11]) was 11.5 µM (active).

For `NC(=O)SCC(=O)Nc1ccccc1C(=O)O`, the IC50 (Beta-lactamase [12]) was > 59.6 µM (inactive), the IC50 (Beta-lactamase [13]) was > 59.6 µM (inactive) and the IC50 (Beta-lactamase [14]) was 24.1 µM (inactive).

With `COc1c(NC(=O)C(=O)c2ccc(OCCN3CCOCC3)c3ccccc23)cc(C(C)(C)C)cc1NS(C)(=O)=O` [ITX-5061 FREE BASE] the AC50 [15] was 0.146 µM (active) and the AC50 [16] was 0.0114 µM (active).

In the case of `CC(C)OCCCNC(=O)c1ccncc1`, the AC50 [17] is reported as 37.6 µM (active).

For `O=C1/C(=C\c2ccc(Cl)c(Cl)c2)CN(C(=O)CCN2CCOCC2)C/C1=C/c1ccc(Cl)c(Cl)c1`, the IC50 (Beta Lactamase) was 31.4 µM (inactive), the CC50 [18] was 16.9 µM (active) and the AC50 (Paired box protein Pax-8) was 2.65 µM (active). For the same compound, the AC50 [19] was 2.98 µM (active), the IC50 [20] was 0.614 µM (active) and the IC50 [21] was 121 µM (active).
